# Measured values from patent US20140323501A1, “AMINO-PROPYLENE-GLYCOL DERIVATIVES, PREPARATION METHOD AND PHARMACEUTICAL COMPOSITION AND USE THEREOF” (INSTITUTE OF MATERIA MEDICA, CHINESE ACADEMY OF MEDICAL …, priority 2011, published 2014).
# Assays:
# [1] = tested on: SD rat peripheral blood lymphocyte counts; assay: Effect of S1P1 receptor agonists on rat vein (peripheral) blood lymphocyte counts; type: in vivo; conditions: for LYM 0 h: before administration; for Δ %: largest decrease of lymphocyte count vs 0 h
# Description: 10 mg of drugs were measured and placed in a mortar. After 4 mL of 5‰ CMC-Na were added, homogenous suspension was prepared in the mortar (one drop of twain-80 was added to help dissolving). Dosage: 10 mg/Kg, dose volume: 0.4 mL/100 g, intragastric administration.
# Every medicated group was assigned three rats.
# After the experimental animals stable in the clean environment for 24 h, 10 μL of blood was withdrawn via tail vein and diluted into 2 mL of diluents quickly. […] Then the prepared drugs were administered intragastrically to the animals. […] The animals were killed after 24 h.
# [2] = tested on: SD rat heart rate; assay: Effect of S1P1 receptor agonists on rat heart rate; type: in vivo; conditions: for HR delta %: (lowest heart rate postdose − pre-administration)/pre-administration; for heart rate pre-administration: before administration
# Description: 2.1 Experimental animals: SD rats, purchased from Weitonglihua. Weight: 200-240 g, male. Every test group was assigned three rats. The normal rats were set as control group and determined as the medicated group parallelly for three times. The positive drug FTY720 was repeated three times.
# 2.2 Apparatus: Intelligent non-invasive blood pressure measurement meter (Softron, Japan).
# (1) Preparation: The drug was dissolved to reach a concentration of 2.5 mg/mL.
# (1) Determination of rat heart rate before administration. Repeat for three times.
# (2) Administration: intragastric administration after SD rats weighed.
# (3) Determination of rat heart rate at the time 0.5 h, 1 h, 3 h, 6 h, 8 h and 24 h after administration. Repeat for three times
# Every drug was tested with three SD rats parallelly. […] Delta % of heart rate=(the lowest heart rate postdose−the heart rate pre-administration)/the heart rate pre-administration, reflects the influence of drugs on rat heart rate.
# [3] = Table 6, intragastric, listed as FTY720-1
# [4] = Table 6, intragastric, listed as FTY720-2
smiles,measurement,setting,value
"CCCCCCCCc1ccc(CCC(N)(CO)CO)cc1 [FTY720, reference compound]",LYM 0 h,"[1]; Table 1, 10 mg/Kg intragastric",4.20 ± 0.57 × 10^9/L
same,LYM 1 h,"[1]; Table 1, 10 mg/Kg intragastric, 1 h after administration",4.75 ± 2.76 × 10^9/L
same,LYM 2 h,"[1]; Table 1, 10 mg/Kg intragastric, 2 h after administration",2.45 ± 0.07 × 10^9/L
same,LYM 4 h,"[1]; Table 1, 10 mg/Kg intragastric, 4 h after administration",2.75 ± 0.78 × 10^9/L
same,LYM 8 h,"[1]; Table 1, 10 mg/Kg intragastric, 8 h after administration",1.80 ± 0.14 × 10^9/L
same,LYM 12 h,"[1]; Table 1, 10 mg/Kg intragastric, 12 h after administration",1.00 ± 0.00 × 10^9/L
same,LYM 24 h,"[1]; Table 1, 10 mg/Kg intragastric, 24 h after administration",2.60 ± 0.42 × 10^9/L
same,compared with 0 h (%) 1 h,"[1]; Table 1, lymphocyte count change vs 0 h, 10 mg/Kg intragastric, 1 h",−13.10%
same,compared with 0 h (%) 2 h,"[1]; Table 1, lymphocyte count change vs 0 h, 10 mg/Kg intragastric, 2 h",41.67%
same,compared with 0 h (%) 4 h,"[1]; Table 1, lymphocyte count change vs 0 h, 10 mg/Kg intragastric, 4 h",34.52%
same,compared with 0 h (%) 8 h,"[1]; Table 1, lymphocyte count change vs 0 h, 10 mg/Kg intragastric, 8 h",57.14%
same,compared with 0 h (%) 12 h,"[1]; Table 1, lymphocyte count change vs 0 h, 10 mg/Kg intragastric, 12 h",76.19%
same,compared with 0 h (%) 24 h,"[1]; Table 1, lymphocyte count change vs 0 h, 10 mg/Kg intragastric, 24 h",38.10%
same,LYM 0 h,"[1]; Table 3, 10 mg/Kg intragastric",4.97 ± 1.06 ×10^9/L
same,LYM 1 h,"[1]; Table 3, 10 mg/Kg intragastric, 1 h",3.18 ± 0.52 ×10^9/L
same,LYM 2 h,"[1]; Table 3, 10 mg/Kg intragastric, 2 h",3.15 ± 0.71 ×10^9/L
same,LYM 4 h,"[1]; Table 3, 10 mg/Kg intragastric, 4 h",3.44 ± 1.30 ×10^9/L
same,LYM 6 h,"[1]; Table 3, 10 mg/Kg intragastric, 6 h",2.78 ± 0.84 ×10^9/L
same,LYM 8 h,"[1]; Table 3, 10 mg/Kg intragastric, 8 h",2.32 ± 0.90 ×10^9/L
same,LYM 12 h,"[1]; Table 3, 10 mg/Kg intragastric, 12 h",2.33 ± 0.75 ×10^9/L
same,LYM 23 h,"[1]; Table 3, 10 mg/Kg intragastric, 23 h",1.78 ± 0.29 ×10^9/L
same,Δ %,"[1]; Table 3, 10 mg/Kg intragastric",64.09%
same,LYM 0 h,"[1]; Table 5, 10 mg/Kg intragastric",3.80 ± 0.14 × 10^9/L
same,LYM 1 h,"[1]; Table 5, 10 mg/Kg intragastric, 1 h",2.30 ± 0.85 × 10^9/L
same,LYM 4 h,"[1]; Table 5, 10 mg/Kg intragastric, 4 h",1.20 ± 0.36 × 10^9/L
same,LYM 8 h,"[1]; Table 5, 10 mg/Kg intragastric, 8 h",1.07 ± 0.50 × 10^9/L
same,LYM 12 h,"[1]; Table 5, 10 mg/Kg intragastric, 12 h",1.27 ± 0.23 × 10^9/L
same,LYM 24 h,"[1]; Table 5, 10 mg/Kg intragastric, 24 h",1.60 ± 0.57 × 10^9/L
same,Δ %,[1]; Table 5,71.93%
same,LYM 0 h,"[1]; Table 7, 10 mg/Kg intragastric",3.80 ± 0.14 × 10^9/L
same,LYM 1 h,"[1]; Table 7, 10 mg/Kg intragastric, 1 h",2.30 ± 0.85 × 10^9/L
same,LYM 4 h,"[1]; Table 7, 10 mg/Kg intragastric, 4 h",1.20 ± 0.36 × 10^9/L
same,LYM 8 h,"[1]; Table 7, 10 mg/Kg intragastric, 8 h",1.07 ± 0.50 × 10^9/L
same,LYM 12 h,"[1]; Table 7, 10 mg/Kg intragastric, 12 h",1.27 ± 0.23 × 10^9/L
same,LYM 24 h,"[1]; Table 7, 10 mg/Kg intragastric, 24 h",1.60 ± 0.57 × 10^9/L
same,Δ %,[1]; Table 7,71.93%
same,LYM 0 h,"[1]; Table 8, 10 mg/Kg intragastric",4.20 ± 0.57 × 10^9/L
same,LYM 1 h,"[1]; Table 8, 10 mg/Kg intragastric, 1 h",4.75 ± 2.76 × 10^9/L
same,LYM 4 h,"[1]; Table 8, 10 mg/Kg intragastric, 4 h",2.75 ± 0.78 × 10^9/L
same,LYM 8 h,"[1]; Table 8, 10 mg/Kg intragastric, 8 h",1.80 ± 0.14 × 10^9/L
same,LYM 12 h,"[1]; Table 8, 10 mg/Kg intragastric, 12 h",1.00 ± 0.00 × 10^9/L
same,LYM 24 h,"[1]; Table 8, 10 mg/Kg intragastric, 24 h",2.60 ± 0.42 × 10^9/L
same,Δ %,[1]; Table 8,76.19%
same,HR delta %,"[2]; Table 2, listed as FTY720-1",19.60%
same,HR delta %,"[2]; Table 2, listed as FTY720-2",17.80%
same,HR delta %,"[2]; Table 2, listed as FTY720-3",14.00%
same,HR delta %,"[2]; Table 2, listed as average of FTY720",16.6%
same,heart rate 0.5 h,"[2]; Table 2, intragastric, 0.5 h after administration, listed as FTY720-1",392.33
same,heart rate 0.5 h,"[2]; Table 2, intragastric, 0.5 h after administration, listed as FTY720-2",361.28
same,heart rate 0.5 h,"[2]; Table 2, intragastric, 0.5 h after administration, listed as FTY720-3",379.67
same,heart rate 0.5 h,"[2]; Table 2, intragastric, 0.5 h after administration, listed as average of FTY720",377.76
same,heart rate 1 h,"[2]; Table 2, intragastric, 1 h after administration, listed as FTY720-1",361.00
same,heart rate 1 h,"[2]; Table 2, intragastric, 1 h after administration, listed as FTY720-2",331.71
same,heart rate 1 h,"[2]; Table 2, intragastric, 1 h after administration, listed as FTY720-3",370.62
same,heart rate 1 h,"[2]; Table 2, intragastric, 1 h after administration, listed as average of FTY720",354.44
same,heart rate 3 h,"[2]; Table 2, intragastric, 3 h after administration, listed as FTY720-1",318.50
same,heart rate 3 h,"[2]; Table 2, intragastric, 3 h after administration, listed as FTY720-2",329.33
same,heart rate 3 h,"[2]; Table 2, intragastric, 3 h after administration, listed as FTY720-3",355.83
same,heart rate 3 h,"[2]; Table 2, intragastric, 3 h after administration, listed as average of FTY720",334.55
same,heart rate 6 h,"[2]; Table 2, intragastric, 6 h after administration, listed as FTY720-1",325.78
same,heart rate 6 h,"[2]; Table 2, intragastric, 6 h after administration, listed as FTY720-2",327.82
same,heart rate 6 h,"[2]; Table 2, intragastric, 6 h after administration, listed as FTY720-3",342.00
same,heart rate 6 h,"[2]; Table 2, intragastric, 6 h after administration, listed as average of FTY720",331.86
same,heart rate 8 h,"[2]; Table 2, intragastric, 8 h after administration, listed as FTY720-1",341.00
same,heart rate 8 h,"[2]; Table 2, intragastric, 8 h after administration, listed as FTY720-2",338.78
same,heart rate 8 h,"[2]; Table 2, intragastric, 8 h after administration, listed as FTY720-3",342.50
same,heart rate 8 h,"[2]; Table 2, intragastric, 8 h after administration, listed as average of FTY720",340.76
same,heart rate 24 h,"[2]; Table 2, intragastric, 24 h after administration, listed as FTY720-1",329.67
same,heart rate 24 h,"[2]; Table 2, intragastric, 24 h after administration, listed as FTY720-2",365.07
same,heart rate 24 h,"[2]; Table 2, intragastric, 24 h after administration, listed as FTY720-3",363.44
same,heart rate 24 h,"[2]; Table 2, intragastric, 24 h after administration, listed as average of FTY720",352.72
same,heart rate pre-administration,"[2]; Table 2, intragastric, listed as FTY720-1",396.28
same,heart rate pre-administration,"[2]; Table 2, intragastric, listed as FTY720-2",398.60
same,heart rate pre-administration,"[2]; Table 2, intragastric, listed as FTY720-3",398.22
same,heart rate pre-administration,"[2]; Table 2, intragastric, listed as average of FTY720",397.70
same,Δ % = the percentage of change of rat heart rate before and after administration,[2]; Table 4,26.16%
same,heart rate 0.5 h,"[2]; Table 4, intragastric, 0.5 h",356.33
same,heart rate 1 h,"[2]; Table 4, intragastric, 1 h",319.22
same,heart rate 3 h,"[2]; Table 4, intragastric, 3 h",288.58
same,heart rate 6 h,"[2]; Table 4, intragastric, 6 h",280.13
same,heart rate 8 h,"[2]; Table 4, intragastric, 8 h",308.08
same,heart rate 24 h,"[2]; Table 4, intragastric, 24 h",323.25
same,heart rate 0,"[2]; Table 4, intragastric, time 0, before administration",379.42
same,HR delta %,"[2]; Table 6, listed as FTY720-1",21.86%
same,HR delta %,"[2]; Table 6, listed as FTY720-2",22.61%
same,heart rate 1 h,"[2]; Table 6, intragastric, 1 h, listed as FTY720-1",389.62 ± 30.01
same,heart rate 1 h,"[2]; Table 6, intragastric, 1 h, listed as FTY720-2",389.62 ± 23.39
same,heart rate 4 h,[2]; [3],340.17 ± 32.04
same,heart rate 4 h,[2]; [4],354.27 ± 15.79
same,heart rate 8 h,"[2]; Table 6, intragastric, 8 h, listed as FTY720-1",361.69 ± 27.99
same,heart rate 8 h,"[2]; Table 6, intragastric, 8 h, listed as FTY720-2",346.91 ± 26.41
same,heart rate 12 h,[2]; [3],360.62 ± 18.19
same,heart rate 12 h,[2]; [4],335.67 ± 16.30
same,heart rate 24 h,"[2]; Table 6, intragastric, 24 h, listed as FTY720-1",410.31 ± 32.13
same,heart rate 24 h,"[2]; Table 6, intragastric, 24 h, listed as FTY720-2",370.18 ± 26.82
same,heart rate pre-administration,[2]; [3],435.36 ± 47.99
same,heart rate pre-administration,[2]; [4],433.75 ± 30.84
same,HR delta %,[2]; Table 9,17.80%
same,heart rate 0.5 h,"[2]; Table 9, intragastric, 0.5 h",361.28 ± 22.91
same,heart rate 1 h,"[2]; Table 9, intragastric, 1 h",331.71 ± 12.26
same,heart rate 3 h,"[2]; Table 9, intragastric, 3 h",329.33 ± 11.32
same,heart rate 6 h,"[2]; Table 9, intragastric, 6 h",327.82 ± 15.60
same,heart rate 8 h,"[2]; Table 9, intragastric, 8 h",338.78 ± 12.07
same,heart rate 24 h,"[2]; Table 9, intragastric, 24 h",365.07 ± 19.47
same,heart rate pre-administration,"[2]; Table 9, intragastric",398.60 ± 33.20
